This is an account of results in patent US8431593B2, “Heteroaryl amide derivatives” (H. Lundbeck A/S, priority 2006, dated 2013).

Where only a bound is given, the exact number is not on record here.

For this assay, the target named is T1, P2X7 receptor (Homo sapiens, UniProt Q99572).
T1 construct: host or cells: SH-SY5Y
T1 sequence (Q99572 1-595): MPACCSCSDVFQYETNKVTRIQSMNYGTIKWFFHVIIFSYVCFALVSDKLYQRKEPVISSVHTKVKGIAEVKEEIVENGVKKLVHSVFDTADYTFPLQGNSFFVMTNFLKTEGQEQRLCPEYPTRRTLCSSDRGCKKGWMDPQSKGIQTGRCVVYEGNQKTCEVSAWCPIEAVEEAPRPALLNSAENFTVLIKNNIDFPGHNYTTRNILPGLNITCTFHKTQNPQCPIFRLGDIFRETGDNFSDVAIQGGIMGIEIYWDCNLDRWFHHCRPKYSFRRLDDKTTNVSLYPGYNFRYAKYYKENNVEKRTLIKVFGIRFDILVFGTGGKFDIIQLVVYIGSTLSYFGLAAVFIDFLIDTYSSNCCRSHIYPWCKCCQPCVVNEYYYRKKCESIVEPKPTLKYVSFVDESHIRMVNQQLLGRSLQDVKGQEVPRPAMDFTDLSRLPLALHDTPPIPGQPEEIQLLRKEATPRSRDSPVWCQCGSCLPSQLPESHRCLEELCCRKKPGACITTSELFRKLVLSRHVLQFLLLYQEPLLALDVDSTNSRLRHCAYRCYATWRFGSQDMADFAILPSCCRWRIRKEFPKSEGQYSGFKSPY
Kind of assay: P2X7 calcium mobilization assay, high throughput, antagonist activity (Example 4A). Type of assay: cell-based. To be noted: 50% decrease in the fluorescence response of cells exposed to 80 μM of 2′(3′)-O-(4-benzoyl-benzoyl)adenosine 5′-triphosphate; determined as in Example 4A; read-out: IC50. A digest of the protocol:
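Antagonism was measured as calcium mobilization on FLIPR^TETRA after a 1 h room-temperature compound preincubation of dye-loaded cells. Baseline from no-agonist wells was subtracted from each well's maximum RFU.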
For orientation: Calcium assays in cells follow changes in intracellular calcium, usually with a dye or a luminescent sensor.

Broadly, the IC50 is the concentration needed to halve the response being measured. As to `O=C(Cc1cn2c(C(=O)NCC3(c4ccc(Cl)cc4)CCCCC3)cccc2n1)NCC1CC1` [Compound 862, N-{[1-(4-chlorophenyl)cyclohexyl]methyl}-2-{2-[(cyclopropylmethyl)amino]-2-oxoethyl} imidazo[1,2-a] pyridine-5-carboxamide], the concentration for half-maximal inhibition (IC50) was less than 2 µM.

With `CC(O)CNC(=O)Cc1cn2c(C(=O)NCC3(c4ccc(C(F)(F)F)cc4)CCCCC3)cccc2n1` (centres unmarked) [Compound 864, 2-{2-[(2-hydroxypropyl)amino]-2-oxoethyl}-N-({1-[4-(trifluoromethyl)phenyl]cyclohexyl}methyl) imidazo[1,2-a] pyridine-5-carboxamide], the 50% inhibitory concentration (IC50) is less than 2 µM.

As to `O=C(Cc1cn2c(C(=O)NCC3(c4cccnc4)CCCCC3)cccc2n1)NC1CCCC1` [Compound 865, 2-[2-(cyclopentylamino)-2-oxoethyl]-N-[(1-pyridin-3-ylcyclohexyl)methyl] imidazo[1,2-a] pyridine-5-carboxamide], the IC50 was less than 2 µM.

With `O=C(Cc1cn2c(C(=O)NCC3(c4ccc(Cl)cc4)CCCCC3)cccc2n1)NC1CCCC1` [Compound 866, N-{[1-(4-chlorophenyl)cyclohexyl]methyl}-2-[2-(cyclopentylamino)-2-oxoethyl]imidazo [1,2-a]pyridine-5-carboxamide], the IC50 was less than 2 µM.

For `CCC(C)NC(=O)Cc1cn2c(C(=O)NCC3(c4ccc(C(F)(F)F)cc4)CCCCC3)cccc2n1` (centres unmarked) [Compound 868, 2-[2-(sec-butylamino)-2-oxoethyl]-N-({1-[4-(trifluoromethyl)phenyl]cyclohexyl}methyl) imidazo[1,2-a] pyridine-5-carboxamide], the IC50 was less than 2 µM.

As to `CCC(C)NC(=O)Cc1cn2c(C(=O)NCC3(c4cccnc4)CCCCC3)cccc2n1` (centres unmarked) [Compound 869, 2-[2-(sec-butylamino)-2-oxoethyl]-N-[(1-pyridin-3-ylcyclohexyl)methyl] imidazo[1,2-a] pyridine-5-carboxamide], the 50% inhibitory concentration (IC50) was less than 2 µM.

Take `CCC(C)NC(=O)Cc1cn2c(C(=O)NCC3(c4ccc(Cl)cc4)CCCCC3)cccc2n1` (centres unmarked) [Compound 870, 2-[2-(sec-butylamino)-2-oxoethyl]-N-{[1-(4-chlorophenyl)cyclohexyl]methyl}imidazo [1,2-a]pyridine-5-carboxamide]: the concentration for half-maximal inhibition (IC50) is less than 2 µM.

For the compound `CC(C)(C)CCNC(=O)Cc1cn2c(C(=O)NCC3(c4ccc(Cl)cc4)CCCCC3)cccc2n1` [Compound 871, N-{[1-(4-chlorophenyl)cyclohexyl]methyl}-2-{2-[(3,3-dimethylbutyl)amino]-2-oxoethyl} imidazo[1,2-a] pyridine-5-carboxamide], the IC50 was less than 2 µM.

For the compound `O=C(Cc1cn2c(C(=O)NCC3(c4ccc(Cl)cc4)CCOCC3)cccc2n1)NCC(F)(F)F` [Compound 872, N-{[4-(4-chlorophenyl)tetrahydro-2H-pyran-4-yl]methyl}-2-{2-oxo-2-[(2,2,2-trifluoroethyl)amino]ethyl}imidazo [1,2-a]pyridine-5-carboxamide], the half-maximal inhibitory concentration (IC50) is less than 2 µM.

In the case of `O=C(Cc1cn2c(C(=O)NCC3(c4ccc(C(F)(F)F)cc4)CCCCC3)cccc2n1)NCC(F)(F)F` [Compound 873, 2-{2-oxo-2-[(2,2,2-trifluoroethyl)amino]ethyl}-N-({1-[4-(trifluoromethyl)phenyl]cyclohexyl}methyl) imidazo[1,2-a] pyridine-5-carboxamide], the IC50 was less than 2 µM.

As for `O=C(Cc1cn2c(C(=O)NCC3(c4cccnc4)CCCCC3)cccc2n1)NCC(F)(F)F` [Compound 874, 2-{2-oxo-2-[(2,2,2-trifluoroethyl)amino]ethyl}-N-[(1-pyridin-3-ylcyclohexyl)methyl] imidazo[1,2-a] pyridine-5-carboxamide], the concentration for half-maximal inhibition (IC50) is less than 2 µM.

Consider `O=C(Cc1cn2c(C(=O)NCC3(c4ccc(Cl)cc4)CCCCC3)cccc2n1)NCC(F)(F)F` [Compound 875, N-{[1-(4-chlorophenyl)cyclohexyl]methyl}-2-{2-oxo-2-[(2,2,2-trifluoroethyl)amino]ethyl} imidazo[1,2-a] pyridine-5-carboxamide], for which the half-maximal inhibitory concentration (IC50) is less than 2 µM.

Take `O=C(Cc1cn2c(C(=O)NCC3(c4ccc(C(F)(F)F)cc4)CCCCC3)cccc2n1)NC1CCCC1` [Compound 877, 2-[2-(cyclopentylamino)-2-oxoethyl]-N-({1-[4-(trifluoromethyl)phenyl]cyclohexyl}methyl) imidazo[1,2-a] pyridine-5-carboxamide]: the IC50 was less than 2 µM.

On to `O=C(NCC1(c2ccc(C(F)(F)F)cc2)CCCCC1)c1cccc2nc(CC(=O)N3CCn4cncc4C3)cn12` [Compound 879, 2-[2-(5,6-dihydroimidazo[1,5-a]pyrazin-7(8H)-yl)-2-oxoethyl]-N-({1-[4-(trifluoromethyl)phenyl]cyclohexyl}methyl) imidazo[1,2-a] pyridine-5-carboxamide], for which the 50% inhibitory concentration (IC50) was less than 2 µM.

With `O=C(NCC1(c2ccc(Cl)cc2)CCCCC1)c1cccc2nc(CC(=O)N3CCn4cncc4C3)cn12` [Compound 881, N-{[1-(4-chlorophenyl)cyclohexyl]methyl}-2-[2-(5,6-dihydroimidazo[1,5-a]pyrazin-7(8H)-yl)-2-oxoethyl]imidazo[1,2-a]pyridine-5-carboxamide], the half-inhibitory concentration (IC50) is less than 2 µM.

`CC(C)(C)CCNC(=O)Cc1cn2c(C(=O)NCC3(c4ccc(Cl)cc4)CCOCC3)cccc2n1` [Compound 882, N-{[4-(4-chlorophenyl)tetrahydro-2H-pyran-4-yl]methyl}-2-{2-[(3,3-dimethylbutyl)amino]-2-oxoethyl}imidazo[1,2-a]pyridine-5-carboxamide]: the 50% inhibitory concentration (IC50) is less than 2 µM.

Regarding `CC(C)(C)CCNC(=O)Cc1cn2c(C(=O)NCC3(c4ccc(C(F)(F)F)cc4)CCCCC3)cccc2n1` [Compound 883, 2-{2-[(3,3-dimethylbutyl)amino]-2-oxoethyl}-N-({1-[4-(trifluoromethyl)phenyl]cyclohexyl}methyl) imidazo[1,2-a] pyridine-5-carboxamide], the IC50 is less than 2 µM.

As for `CC(C)(C)CCNC(=O)Cc1cn2c(C(=O)NCC3(c4cccnc4)CCCCC3)cccc2n1` [Compound 884, 2-{2-[(3,3-dimethylbutyl)amino]-2-oxoethyl}-N-[(1-pyridin-3-ylcyclohexyl)methyl] imidazo[1,2-a] pyridine-5-carboxamide], the IC50 is less than 2 µM.

Regarding `CC(C)N1CCN(C(=O)Cc2cn3c(C(=O)NCC4(c5ccc(C(F)(F)F)cc5)CCCCC4)cccc3n2)CC1` [Compound 885, 2-[2-(4-isopropylpiperazin-1-yl)-2-oxoethyl]-N-({1-[4-(trifluoromethyl)phenyl]cyclohexyl}methyl) imidazo[1,2-a] pyridine-5-carboxamide], the half-inhibitory concentration (IC50) is less than 2 µM.

On to `CC(C)N1CCN(C(=O)Cc2cn3c(C(=O)NCC4(c5ccc(Cl)cc5)CCCCC4)cccc3n2)CC1` [Compound 886, N-{[1-(4-chlorophenyl)cyclohexyl]methyl}-2-[2-(4-isopropylpiperazin-1-yl)-2-oxoethyl] imidazo[1,2-a] pyridine-5-carboxamide], for which the IC50 was less than 2 µM.

Turning to `O=C(NCC1(c2ccc(C(F)(F)F)cc2)CCCCC1)c1cccc2nc(CC(=O)N3CCSCC3)cn12` [Compound 889, 2-(2-oxo-2-thiomorpholin-4-ylethy)-N-({1-[4-(trifluoromethyl)phenyl]cyclohexyl}methyl) imidazo[1,2-a] pyridine-5-carboxamide], the half-inhibitory concentration (IC50) is less than 2 µM.

`O=C(NCC1(c2cccnc2)CCCCC1)c1cccc2nc(CC(=O)N3CCSCC3)cn12` [Compound 890, 2-(2-oxo-2-thiomorpholin-4-ylethyl)-N-[(1-pyridin-3-ylcyclohexyl)methyl] imidazo[1,2-a] pyridine-5-carboxamide]: the IC50 was less than 2 µM.

Regarding `O=C(NCC1(c2ccc(Cl)cc2)CCCCC1)c1cccc2nc(CC(=O)N3CCSCC3)cn12` [Compound 891, N-{[1-(4-chlorophenyl)cyclohexyl]methyl}-2-(2-oxo-2-thiomorpholin-4-ylethyl)imidazo [1,2-a]pyridine-5-carboxamide], the IC50 was less than 2 µM.

For the compound `CN(C)C1CCCN(C(=O)Cc2cn3c(C(=O)NCC4(c5ccc(C(F)(F)F)cc5)CCCCC4)cccc3n2)C1` (centres unmarked) [Compound 892, 2-{2-[3-(dimethylamino)piperidin-1-yl]-2-oxoethyl}-N-({1-[4-(trifluoromethyl)phenyl]cyclohexyl}methyl) imidazo[1,2-a] pyridine-5-carboxamide], the IC50 is less than 2 µM.

In the case of `CN(C)C1CCCN(C(=O)Cc2cn3c(C(=O)NCC4(c5cccnc5)CCCCC4)cccc3n2)C1` (centres unmarked) [Compound 893, 2-{2-[3-(dimethylamino)piperidin-1-yl]-2-oxoethyl}-N-[(1-pyridin-3-ylcyclohexyl)methyl] imidazo[1,2-a] pyridine-5-carboxamide], the IC50 is less than 2 µM.

For the compound `CN(C)C1CCCN(C(=O)Cc2cn3c(C(=O)NCC4(c5ccc(Cl)cc5)CCCCC4)cccc3n2)C1` (centres unmarked) [Compound 894, N-{[1-(4-chlorophenyl)cyclohexyl]methyl}-2-{2-[3-(dimethylamino)piperidin-1-yl]-2-oxoethyl} imidazo[1,2-a] pyridine-5-carboxamide], the IC50 is less than 2 µM.
